Reference: ChEMBL document CHEMBL4138206, “Acovenoside A Induces Mitotic Catastrophe Followed by Apoptosis in Non-Small-Cell Lung Cancer Cells” (J Nat Prod, 2017)
pIC50: −log10 of the molar value. Activity calls are given as the source filed them. No cut-off for these calls is given here.

What was measured:
A549 [1] = assay: Induction of mitochondrial dysfunction in human A549 cells assessed as cell population with mitochondrial potential loss at 100 nM after 48 hrs by JC-1 staining based flow cytometry (reference value: 7%); type: functional
A549 [2] = assay: Induction of mitochondrial dysfunction in human A549 cells assessed as cell population with intact mitochondrial potential at 100 nM after 48 hrs by JC-1 staining based flow cytometry (reference value: 7%); type: functional
[3] = biological target: T1, Cyclin-dependent kinase 1/cyclin B1 (Homo sapiens) (UniProt P06493+P14635); assay: Activation of CDK1/cyclinB1 in human A549 cells at 50 to 100 nM after 12 hrs by western blot analysis; type: cell-based
T1 sequence (P06493 whole entry, looked up): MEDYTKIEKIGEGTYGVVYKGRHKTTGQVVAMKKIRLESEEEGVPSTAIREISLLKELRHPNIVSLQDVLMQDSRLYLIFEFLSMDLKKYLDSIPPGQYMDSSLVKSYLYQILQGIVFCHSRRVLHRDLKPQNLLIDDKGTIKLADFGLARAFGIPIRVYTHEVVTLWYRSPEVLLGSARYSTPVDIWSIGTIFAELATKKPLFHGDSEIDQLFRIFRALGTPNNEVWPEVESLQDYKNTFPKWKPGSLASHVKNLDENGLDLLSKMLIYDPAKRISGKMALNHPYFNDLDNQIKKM
T1 sequence (P14635 whole entry, looked up): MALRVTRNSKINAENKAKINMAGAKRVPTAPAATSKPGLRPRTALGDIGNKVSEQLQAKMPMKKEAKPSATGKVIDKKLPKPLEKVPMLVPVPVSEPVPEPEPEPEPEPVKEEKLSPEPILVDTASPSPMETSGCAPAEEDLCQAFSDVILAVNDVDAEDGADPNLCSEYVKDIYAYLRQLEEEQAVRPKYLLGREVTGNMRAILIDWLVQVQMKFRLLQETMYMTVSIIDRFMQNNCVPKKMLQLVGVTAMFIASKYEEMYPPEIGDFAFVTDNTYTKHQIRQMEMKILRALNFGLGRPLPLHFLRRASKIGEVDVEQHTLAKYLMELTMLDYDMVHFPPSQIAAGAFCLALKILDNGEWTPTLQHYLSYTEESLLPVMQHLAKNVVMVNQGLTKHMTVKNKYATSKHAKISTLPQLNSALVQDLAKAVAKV

A549 [4] = assay: Cytotoxicity against human A549 cells assessed as reduction in cell viability after 24 hrs by XTT assay; type: functional, cell-based; details: A549, 24 h
A549 [5] = assay: Cytotoxicity against human A549 cells assessed as reduction in cell viability after 48 hrs by XTT assay; type: functional, cell-based; details: A549, 48 h
PBMC = assay: Cytotoxicity against human PBMC cells assessed as reduction in cell viability after 48 hrs by XTT assay; type: cell-based
MRC5 = assay: Cytotoxicity against human MRC5 cells assessed as reduction in cell viability after 24 hrs by XTT assay; type: cell-based; details: MRC5, 24 h
CAL-12T [6] = assay: Cytotoxicity against human CAL-12T cells assessed as reduction in cell viability after 48 hrs by XTT assay; type: functional, cell-based
HCC827 [7] = assay: Cytotoxicity against human HCC827 cells assessed as reduction in cell viability after 48 hrs by XTT assay; type: functional, cell-based; details: HCC827, 48 h
MDA-MB-231 [8] = assay: Cytotoxicity against human MDA-MB-231 cells assessed as reduction in cell viability after 24 hrs by XTT assay; type: functional, cell-based; details: MDA-MB-231, 24 h
MDA-MB-231 [9] = assay: Cytotoxicity against human MDA-MB-231 cells assessed as reduction in cell viability after 48 hrs by XTT assay; type: functional, cell-based; details: MDA-MB-231, 48 h
A549 [10] = assay: Cell cycle arrest in human A549 cells assessed as accumulation at G2/M phase after 24 hrs by propidium iodide staining based flow cytometry; type: functional
A549 [11] = assay: Cell cycle arrest in human A549 cells assessed as accumulation at G2/M phase at 50 nM after 24 hrs by propidium iodide staining based flow cytometry (reference value: 18%); type: functional
A549 [12] = assay: Cell cycle arrest in human A549 cells assessed as accumulation at G2/M phase at 100 nM after 24 hrs by propidium iodide staining based flow cytometry (reference value: 18%); type: functional
A549 [13] = assay: Cell cycle arrest in human A549 cells assessed as accumulation at G0/G1 phase at 50 nM after 24 hrs by propidium iodide staining based flow cytometry (reference value: 61%); type: functional
A549 [14] = assay: Cell cycle arrest in human A549 cells assessed as accumulation at G0/G1 phase at 100 nM after 24 hrs by propidium iodide staining based flow cytometry (reference value: 61%); type: functional
CAL-12T [15] = assay: Cell cycle arrest in human CAL-12T cells at 50 to 100 nM after 24 hrs by propidium iodide staining based flow cytometry; type: functional
HCC827 [16] = assay: Cell cycle arrest in human HCC827 cells at 50 to 100 nM after 24 hrs by propidium iodide staining based flow cytometry; type: functional
[17] = biological target: T1, Cyclin-dependent kinase 1/cyclin B1 (Homo sapiens); assay: Activation of CDK1/cyclinB1 in human A549 cells at 100 nM after 24 hrs by western blot analysis; type: cell-based
[18] = biological target: Cyclin-dependent kinase 1 (Homo sapiens) (UniProt P06493); assay: Activation of CDK1 in human A549 cells assessed as increase in CDK1 phosphorylation at Tyr15 residues at 100 nM after 24 hrs by western blot analysis; type: cell-based
Cyclin-dependent kinase 1 (Homo sapiens), sequence (P06493 whole entry, looked up): as the sequence (P06493 whole entry, looked up) above

[19] = biological target: T1, Cyclin-dependent kinase 1/cyclin B1 (Homo sapiens); assay: Activation of CDK1/cyclinB1 in human A549 cells assessed as increase in cytokinesis defects at 100 nM after 24 hrs by DAPI staining based assay; type: cell-based
A549 [20] = assay: Induction of mitotic catastrophe in human A549 cells assessed as population of cells showing increase in size at 100 nM after 24 hrs by flow cytometry (reference value: 5.7%); type: functional
A549 [21] = assay: Induction of mitochondrial dysfunction in human A549 cells assessed as cell population with mitochondrial potential loss at 50 nM after 48 hrs by JC-1 staining based flow cytometry (reference value: 7%); type: functional
A549 [22] = assay: Induction of mitochondrial dysfunction in human A549 cells assessed as cell population with intact mitochondrial potential at 50 nM after 48 hrs by JC-1 staining based flow cytometry (reference value: 7%); type: functional
A549 [23] = assay: Induction of intracellular ROS production in human A549 cells at 50 nM after 48 hrs by H2DCFDA staining based flow cytometry relative to control; type: functional
A549 [24] = assay: Induction of intracellular ROS production in human A549 cells at 100 nM after 48 hrs by H2DCFDA staining based flow cytometry relative to control; type: functional
A549 [25] = assay: Induction of mitochondrial dysfunction in human A549 cells assessed as decrease in ratio of red to green fluorescence intensity at 50 nM after 48 hrs by JC-1 staining based flow cytometry; type: functional; parameters: scale not given: the % may be the effect or the level left
A549 [26] = assay: Induction of mitochondrial dysfunction in human A549 cells assessed as decrease in ratio of red to green fluorescence intensity at 100 nM after 48 hrs by JC-1 staining based flow cytometry; type: functional; parameters: scale not given: the % may be the effect or the level left
A549 [27] = assay: Cytotoxicity against human A549 cells assessed as reduction in cell viability pretreated with ROS scavenger edaravone for 1 hr followed by compound addition measured after 24 hrs by XTT assay; type: functional, cell-based
A549 [28] = assay: Cytotoxicity against human A549 cells assessed as reduction in cell viability pretreated with ROS scavenger tempol for 1 hr followed by compound addition measured after 24 hrs by XTT assay; type: functional, cell-based
A549 [29] = assay: Cytotoxicity against human A549 cells assessed as reduction in cell viability pretreated with ROS scavenger ebselen for 1 hr followed by compound addition measured after 24 hrs by XTT assay; type: functional, cell-based
A549 [30] = assay: Induction of apoptosis in human A549 cells assessed as activation of caspase 3/7 at 50 nM after 48 hrs using Z-DEVD-R110 as substrate by flow cytometry (reference value: 9%); type: functional
A549 [31] = assay: Induction of apoptosis in human A549 cells assessed as activation of caspase 3/7 at 100 nM after 48 hrs using Z-DEVD-R110 as substrate by flow cytometry (reference value: 9%); type: functional
A549 [32] = assay: Induction of apoptosis in human A549 cells assessed as activation of caspase 3/7 after 48 hrs by flow cytometry; type: functional, cell-based
A549 [33] = assay: Induction of apoptosis in human A549 cells assessed as hypodiploid DNA content at 10 nM after 72 hrs by propidium iodide staining flow cytometry (reference value: 3 to 4%); type: functional
A549 [34] = assay: Induction of apoptosis in human A549 cells assessed as hypodiploid DNA content at 50 nM after 72 hrs by propidium iodide staining flow cytometry (reference value: 3 to 4%); type: functional
A549 [35] = assay: Induction of apoptosis in human A549 cells assessed as hypodiploid DNA content at 100 nM after 72 hrs by propidium iodide staining flow cytometry (reference value: 3 to 4%); type: functional
CAL-12T [36] = assay: Induction of apoptosis in human CAL-12T cells assessed as increase in hypodiploid DNA content at 50 to 100 nM after 72 hrs by propidium iodide staining flow cytometry; type: functional, cell-based
HCC827 [37] = assay: Induction of apoptosis in human HCC827 cells assessed as increase in hypodiploid DNA content at 50 to 100 nM after 72 hrs by propidium iodide staining flow cytometry; type: functional, cell-based

Compound: COc1cccc2c1C(=O)c1c(O)c3c(c(O)c1C2=O)C[C@@](O)(C(=O)CO)C[C@@H]3O[C@H]1C[C@H](N)[C@H](O)[C@H](C)O1 [DOXORUBICIN]
- Activity (A549 [1]): 8.2%
- Activity (A549 [2]): 12.4%

Compound: CO[C@H]1[C@H](O)[C@H](O[C@@H]2C[C@H]3CC[C@@H]4[C@H](CC[C@]5(C)[C@@H](C6=CC(=O)OC6)CC[C@]45O)[C@@]3(C)[C@H](O)C2)O[C@@H](C)[C@@H]1O
- Activity [3]: Active
- pIC50 (A549 [4]): 7.02
- pIC50 (A549 [5]): 7.17
- Activity (PBMC): Non-Toxic
- pIC50 (MRC5): < 6.00
- pIC50 (CAL-12T [6]): 6.79
- pIC50 (HCC827 [7]): 6.15
- pIC50 (MDA-MB-231 [8]): 5.38
- pIC50 (MDA-MB-231 [9]): 5.82
- Activity (A549 [10]): Dose-dependent effect
- Activity (A549 [11]): 29%
- Activity (A549 [12]): 43%
- Activity (A549 [13]): 50%
- Activity (A549 [14]): 31%
- Activity (CAL-12T [15]): Active
- Activity (HCC827 [16]): inactive
- Activity [17]: Active
- Activity [18]: Active
- Activity [19]: 34.3%
- Activity (A549 [20]): 29.8%
- Activity (A549 [1]): 9%
- Activity (A549 [2]): 13.9%
- Activity (A549 [21]): 8.8%
- Activity (A549 [22]): 9%
- fold change (FC) (A549 [23]): 1.5
- fold change (FC) (A549 [24]): 2.8
- Activity (A549 [25]): 20%
- Activity (A549 [26]): 40%
- Activity (A549 [27]): Active
- Activity (A549 [28]): Active
- Activity (A549 [29]): Active
- Activity (A549 [30]): 38%
- Activity (A549 [31]): 65%
- Activity (A549 [32]): Dose-dependent effect
- Activity (A549 [33]): 3%
- Activity (A549 [34]): 13 - 17%
- Activity (A549 [35]): 51 - 55%
- Activity (CAL-12T [36]): Active
- Activity (HCC827 [37]): Active
